Results on three substances are retold here after US11007256B2, “Synthetic lipopeptide vaccines and immunotherapeutics” (The University of Toledo, priority 2016, dated 2021).

Where no end group is shown, it is not given here.

The test system of assay [1] is GAD 546-554 specific CD8 T cell clone. As to the kind of experiment: Cytokine release of GAD 546-554 specific CD8 T cell clone incubated with APLs and antigen presenting cells. The assay is classed as cell-based, mouse. The settings on record: CD8 T cell clone incubated with APL and antigen presenting cells. An excerpt: Immune cells protect the human body from foreign antigens. However, in autoimmune diseases like type 1 diabetes (T1D), autoreactive T cells recognize pancreatic beta cell related proteins as antigens, leading to beta cell destruction. An altered peptide ligand (APL) strategy can be used to target autoreactive T cells in T1D. GAD 546-554 (SEQ ID NO: 7) is reported as a dominant epitope recognized by autoreactive T cells, in the non-obese diabetic mouse model, that can cause destruction of beta cells. Nine APLs which have single alanine substitution, at different positions of GAD 546-554 (SEQ ID NO: 7), were screened. When GAD 546-554 (SEQ ID NO: 7) specific CD8 T cell clone was incubated with different APLs and antigen presenting cells, APL9 (SEQ ID NO: 8) inhibited both IFN-γ and TNF-α release. In order to improve antigen presentation and endosomal escape of APL9 (SEQ ID NO: 8), a bioconjugate platform of a liposome containing a Formula I bioconjugate of APL9 (SEQ ID NO: 8) and the toll like receptor ligand, Pam3CysSK4 (“CysSK4” disclosed as SEQ ID NO: 16), as well as antibody against macrophage and dendritic cell protein, F4/80, was developed. This immunotherapy strategy is beneficial to prevent T1D by rendering autoreactive immune cells more tolerant of beta cells. […]

In assay [2] the test system is GAD 546-554 specific CD8 T cell clone (CTL.546L). As to the kind of experiment: Interferon gamma release of CTL.546L co-cultured with bioconjugate-treated M12C3.B7 APCs. The assay is classed as cell-based, mouse. Particulars: compared with free peptide GAD 546-544; M12C3.B7 APCs treated 3 hours, co-culture 24 hours (FIG. 29). How it is done:
M12C3B7, B cell line, was used as an APC. […] Later, these cells were co-cultured with CTL.546.L (2×10^5 cells/well) for 24 hours. After 24 hours of incubation, supernatants were collected for studying the interferon gamma release.
Co-culture was incubated for 24 hours at 37° C. Supernatants were used to study the IFNγ release.

The test system of the next assay is Splenocytes. As to the kind of experiment: T stimulation assay with IFNγ secreting ELISPOT kit on splenocytes of treated NOD mice. The assay is classed as cell-based, NOD female mice. How it is done: (FIG. 30.) Further, this system was studied in non-diabetic non-obese diabetic model (NOD). […] These mice were sacrificed and their spleens were collected for performing T stimulation assay using IFNγ secreting ELISPOT kit. […] After 36 hours of incubation, IFNγ secreting cells were looked for.

SYQPLGDAV [APL9]: in assay [1], the IFN-γ release entry is listed as “inhibited” and the TNF-α release entry is “inhibited”. With “bioconjugate 546-554: Formula I bioconjugate of GAD 546-554 (SYQPLGDKV, SEQ ID NO: 7) with Pam3CysSK4 (also: Formula I bioconjugate with Pam3CysSK4, attachment site not given here)”, in assay [2], the IFNγ release result is “significantly lower”. For “bioconjugate GAD 541-554: bioconjugate of GAD 541-554 (GTTMVSYQPLGDKV, SEQ ID NO: 6) (also: bioconjugate moiety, kind and site not given here)”, the “number of IFNγ secreting cells” value is on record as “increase in number of IFNγ secreting cells” with Splenocytes (splenocytes from vehicle treated NOD mice, treated in vitro for 36 hours (FIG. 31)) and “increase in number of IFNγ secreting cells” in the assay on Splenocytes (splenocytes of NOD mice primed for three consecutive weeks, then treated with either bioconjugate or bioconjugate with F4/80 for 36 hours).
